The results in this text go back to article PMC6155608, “Substitution at the C-3 Position of Catechins Has an Influence on the Binding Affinities against Serum Albumin” (Molecules : A Journal of Synthetic Chemistry and Natural …, 2017).

Experiment [1] deals with T1, bovine serum albumin (BSA) (Bos taurus, UniProt P02769).
T1 construct: BSA (F-V) and HSA (F-V) were purchased from Nacalai Tesque (Kyoto, Japan); purchased Nacalai Tesque (Kyoto, Japan)
The experiment can be described thus: Trp fluorescence quenching of BSA (Stern–Volmer analysis). The class given is binding. The arrangement: Kq value (Stern–Volmer quenching constant) against BSA: unit not given here. The settings on record: 0.3 mg/mL BSA; for Kq value (Stern–Volmer quenching constant) against BSA: 20 °C, 50 mM sodium phosphate buffer pH 7.0, excitation 280 nm, means ± SE. The procedure:
The fluorescence spectra of another natural catechin was also measured (data not shown).
From the data obtained by fluorescence analysis, the Stern–Volmer quenching constants (Kq values) were calculated by the Stern–Volmer relationship.
(§1) Analysis of fluorescence quenching was performed as described previously. A series of mixtures was prepared with catechins or their derivatives at various concentrations (as indicated in each figure legend) and a fixed concentration of BSA (0.3 mg/mL). After the mixture was incubated at 20 °C for 20 min, the fluorescence spectrum of BSA in the mixture was measured at 20 °C in 50 mM sodium phosphate buffer (pH 7.0) at an excitation wavelength of 280 nm and with emission in the range 290–450 nm. All measurements were performed in triplicate. Fluorescence quenching data were analyzed by the Stern–Volmer equation (Equation (1)): F0 = F (1 + Kq × Q),(1) where F0 and F are the relative fluorescence intensities of BSA without and with catechin, respectively, Kq is the Stern–Volmer quenching constant, and Q is the concentration of catechin.

Experiment [2] addresses T2, human serum albumin (HSA) (Homo sapiens, UniProt P02768).
T2 construct: BSA (F-V) and HSA (F-V) were purchased from Nacalai Tesque (Kyoto, Japan); purchased Nacalai Tesque (Kyoto, Japan)
In words: Trp fluorescence quenching of HSA (Stern–Volmer analysis). The following applies: 0.3 mg/mL HSA, excitation 280 nm; means ± SE. The experiment is classed as binding. The arrangement: unit not given here. The procedure: Finally, we investigated the interaction between HSA and catechins and their derivatives (Figure 6). HSA has one Trp residue (Trp-214) located in drug-binding site I, and this residue behaves similarly to the Trp-213 of BSA [22]. […] Moreover, shift of the fluorescence peak wavelength against HSA was weaker than that against BSA.
as §1

T2 sequence (P02768 25-609): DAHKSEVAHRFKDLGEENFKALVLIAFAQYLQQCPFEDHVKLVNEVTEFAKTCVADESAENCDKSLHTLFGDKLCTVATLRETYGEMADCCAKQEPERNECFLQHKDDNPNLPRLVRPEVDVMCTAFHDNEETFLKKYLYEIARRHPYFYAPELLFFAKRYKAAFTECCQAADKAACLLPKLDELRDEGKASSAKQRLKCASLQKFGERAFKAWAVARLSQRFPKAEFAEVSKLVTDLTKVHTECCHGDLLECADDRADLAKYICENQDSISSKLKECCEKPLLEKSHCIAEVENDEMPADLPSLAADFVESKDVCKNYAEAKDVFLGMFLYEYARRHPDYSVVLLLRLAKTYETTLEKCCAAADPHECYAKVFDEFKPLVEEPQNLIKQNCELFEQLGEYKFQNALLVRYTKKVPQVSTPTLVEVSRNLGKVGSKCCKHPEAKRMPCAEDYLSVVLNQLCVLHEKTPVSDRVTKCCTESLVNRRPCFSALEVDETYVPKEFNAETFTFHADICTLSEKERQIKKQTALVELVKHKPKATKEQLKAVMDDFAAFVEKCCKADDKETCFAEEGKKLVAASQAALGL
T1 sequence (P02769 25-607): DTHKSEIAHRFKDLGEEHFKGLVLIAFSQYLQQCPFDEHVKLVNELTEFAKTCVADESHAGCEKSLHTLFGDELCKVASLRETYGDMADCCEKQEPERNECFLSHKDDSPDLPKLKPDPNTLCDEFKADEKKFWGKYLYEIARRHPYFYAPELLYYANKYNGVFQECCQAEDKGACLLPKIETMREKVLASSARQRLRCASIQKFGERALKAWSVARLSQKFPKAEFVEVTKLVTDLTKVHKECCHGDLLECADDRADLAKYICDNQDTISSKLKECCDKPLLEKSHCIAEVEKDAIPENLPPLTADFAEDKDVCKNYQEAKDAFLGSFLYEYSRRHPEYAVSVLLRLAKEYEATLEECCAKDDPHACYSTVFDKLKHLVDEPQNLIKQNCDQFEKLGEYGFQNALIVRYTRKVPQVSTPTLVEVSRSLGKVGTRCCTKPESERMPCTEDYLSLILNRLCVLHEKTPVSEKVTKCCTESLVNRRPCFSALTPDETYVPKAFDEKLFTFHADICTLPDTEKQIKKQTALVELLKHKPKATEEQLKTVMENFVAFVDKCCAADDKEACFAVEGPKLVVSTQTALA

Take `Oc1cc(O)c2c(c1)O[C@H](c1ccc(O)c(O)c1)[C@@H](O)C2` [(+)-C, catechin]: in experiment [1], the “Kq value (Stern–Volmer quenching constant) against BSA” value (shortened to “Kq value … against BSA”) is recorded as 0.005 ± 0.0003. Also, the “Kq value (Stern–Volmer quenching constant) against HSA” value (“Kq value … against HSA” for short) in experiment [2] was 0.002 ± 0.0001.
The corresponding values for `Oc1cc(O)c2c(c1)O[C@H](c1ccc(O)c(O)c1)[C@H](O)C2` [(−)-EC, epicatechin] are 0.005 ± 0.0011 and 0.006 ± 0.0013.
The corresponding values for `O=C(O[C@H]1Cc2c(O)cc(O)cc2O[C@@H]1c1ccc(O)c(O)c1)c1cc(O)c(O)c(O)c1` [Cg, (−)-catechin gallate] are 0.034 ± 0.0092 and 0.011 ± 0.0011.
In the case of `O=C(O[C@@H]1Cc2c(O)cc(O)cc2O[C@@H]1c1ccc(O)c(O)c1)c1cc(O)c(O)c(O)c1` [ECg], the “Kq value … against BSA” value in experiment [1] is 0.060 ± 0.0118. Moreover, the “Kq value … against HSA” value in experiment [2] is 0.007 ± 0.0011.
As to `Oc1cc(O)c2c(c1)O[C@H](c1cc(O)c(O)c(O)c1)[C@H](O)C2` [EGC], the “Kq value … against BSA” value in experiment [1] was 0.001 ± 0.0003. Also, the “Kq value … against HSA” value in experiment [2] was 0.001 ± 0.0002.
Consider `O=C(O[C@@H]1Cc2c(O)cc(O)cc2O[C@@H]1c1cc(O)c(O)c(O)c1)c1cc(O)c(O)c(O)c1` [EGCg, (−)-epigallocatechin gallate], for which the “Kq value … against BSA” value in experiment [1] came out at 0.225 ± 0.0192. In experiment [1] (excitation 280 nm), the “effect on fluorescence intensity of Trp residues of BSA” value is on record as “decreased in a dose-dependent manner” and the “shift of fluorescence peak wavelength of BSA” value is “red-shifted”. In addition, the “Kq value … against HSA” value in experiment [2] was found to be 0.033 ± 0.0065.
As for `Oc1cc(O)c2c(c1)O[C@H](c1cc(O)c(O)c(O)c1)[C@@H](O)C2` [GC], the “Kq value … against BSA” value in experiment [1] came to 0.001 ± 0.0001. Further, the “Kq value … against HSA” value in experiment [2] turned out to be 0.001 ± 0.0001.
Take `O=C(O[C@H]1Cc2c(O)cc(O)cc2O[C@@H]1c1cc(O)c(O)c(O)c1)c1cc(O)c(O)c(O)c1` [GCg]: the “Kq value … against BSA” value in experiment [1] is given as 0.019 ± 0.0030. Further, in experiment [2], the “Kq value … against HSA” value is 0.009 ± 0.0008.
The corresponding values for `COc1cc(C(=O)O[C@@H]2Cc3c(O)cc(O)cc3O[C@@H]2c2cc(O)c(O)c(O)c2)cc(O)c1O` [Methyl-EGCg, epigallocatechin-3-O-methyl gallate] are 0.150 ± 0.0109 and 0.014 ± 0.0021.
